Results: patent publication US4436751A, “Nitrobenzyl monates antibacterial compounds” (Beecham Group Limited, priority 1980, dated 1984)
Values after ≈ are worked out from the molar mass of the structure shown.

Key:
Assay type in all cases: cell-based
[1] = tested on: M. suipneumoniae PW/C/210; experiment: Anti-mycoplasmal MIC in vitro, Friis broth agarose (Table 1); conditions: Mesomycoplasma hyopneumoniae, 144 h
M. bovis RCTC 10131 = experiment: microbe, parasite or virus in culture; conditions: RCTC10131, 144 h
M. suipneumoniae OCD 1 = experiment: Anti-mycoplasmal MIC in vitro, Friis broth agarose (Table 1); conditions: Mesomycoplasma hyopneumoniae, OCD1, 144 h
M. pneumoniae ATCC 15492 = experiment: as above; conditions: Mycoplasmoides pneumoniae, ATCC15492, 144 h
[2] = tested on: M. suipneumoniae ATCC 25095; experiment: as above; conditions: Mesomycoplasma hyopneumoniae, ATCC25095, 144 h
M. suipneumoniae HR(2) = experiment: as above; conditions: Mesomycoplasma hyopneumoniae, 144 h
[3] = tested on: M. suipneumoniae NCTC 10110; experiment: as above; conditions: Mesomycoplasma hyopneumoniae, NCTC10110, 144 h
E. Coli E1 = experiment: Veterinary bacteria MIC, Diagnostic Sensitivity Test Agar (Table 2); conditions: Escherichia coli, 18 h
Experimental: The values were determined using a two fold serial dilutions in Diagnostic Sensitivity Test Agar with an inoculum of 10^4 organisms and incubation for 18 hours at 37° C.

M. hyorhinis ATCC 25021 = experiment: Anti-mycoplasmal MIC in vitro, Friis broth agarose (Table 1); conditions: Mesomycoplasma hyorhinis, ATCC25021, 144 h
E. Coli NCTC 10418 = experiment: Human bacteria MIC, nutrient agar with chocolated horse blood (Table 3); conditions: Escherichia coli, NCTC10418, 18 h
Experimental: (§1) The values were determined by serial dilutions in nutrient agar with 5% chocolated horse blood after incubations for 18 hours at 37° C.

Staph. aureus Russell = experiment: as above; conditions: Staphylococcus aureus, 18 h
Experimental: as §1

Bacillus subtilis 6633 = experiment: as above; conditions: Bacillus subtilis, 6633, 18 h
Experimental: as §1

P. mirabilis 889 = experiment: as above; conditions: Proteus mirabilis, 889, 18 h
Experimental: as §1

[4] = tested on: Corynebacterium xerosis 9755; experiment: as above; conditions: Corynebacterium xerosis, 9755, 18 h
Experimental: as §1

[5] = tested on: Haemophilus influenzae Q1; experiment: as above; conditions: Haemophilus influenzae, Q1, 18 h
Experimental: as §1

[6] = tested on: Ps. aeruginosa NCTC 10662; experiment: as above; conditions: Pseudomonas aeruginosa, NCTC10662, 18 h
Experimental: as §1

K. aerogenes A = experiment: as above; conditions: Klebsiella aerogenes, 18 h
Experimental: as §1

Staph. aureus W2827 = experiment: as above; conditions: Staphylococcus aureus, W2827, 18 h
Experimental: as §1

[7] = tested on: Neisseria catarrhalis 1502; experiment: as above; conditions: Neisseria, 1502, 18 h
Experimental: as §1

Sarcina lutea 8340 = experiment: as above; conditions: Micrococcus luteus, 8340, 18 h
Experimental: as §1

Strep. pneumoniae CN33 = experiment: as above; conditions: Streptococcus pneumoniae, CN33, 18 h
Experimental: as §1

[8] = tested on: Strep. pyogenes R80/421-A; experiment: as above; conditions: Streptococcus pyogenes, R80/421A, 18 h
Experimental: as §1

E. coli ESS = experiment: as above; conditions: Escherichia coli, 18 h
Experimental: as §1

Staph. aureus Oxford = experiment: as above; conditions: Staphylococcus aureus, 18 h
Experimental: as §1

[9] = tested on: Pasteurella multocida 1633; experiment: as above; conditions: Pasteurella multocida, 1633, 18 h
Experimental: as §1

Strep. faecalis 1 = experiment: as above; conditions: Enterococcus faecalis, 1, 18 h
Experimental: as §1

[10] = tested on: M. hyosynoviae ATOC 25591; experiment: Anti-mycoplasmal MIC in vitro, Friis broth agarose (Table 1); conditions: 144 h
M. suipneumoniae JF 435 = experiment: as above; conditions: Mesomycoplasma hyopneumoniae, JF435, 144 h

Row | Structure (SMILES) | MIC [1] [µg/mL] | MIC (M. bovis RCTC 10131) [µg/mL] | MIC (M. suipneumoniae OCD 1) [µg/mL] | MIC [2] [µg/mL] | MIC (M. suipneumoniae HR(2)) [µg/mL] | MIC [3] [µg/mL] | MIC (E. Coli E1) [µg/mL] | MIC (M. hyorhinis ATCC 25021) [µg/mL] | MIC (E. Coli NCTC 10418) [µg/mL] | MIC (Staph. aureus Russell) [µg/mL] | MIC (Bacillus subtilis 6633) [µg/mL] | MIC (P. mirabilis 889) [µg/mL] | MIC [4] [µg/mL] | MIC [5] [µg/mL] | MIC [6] [µg/mL] | MIC (K. aerogenes A) [µg/mL] | MIC (Staph. aureus W2827) [µg/mL] | MIC [7] [µg/mL] | MIC (Sarcina lutea 8340) [µg/mL] | MIC (Strep. pneumoniae CN33) [µg/mL] | further results
1 | C/C(=C\C(=O)OCc1cc([N+](=O)[O-])cc([N+](=O)[O-])c1C)CC1OCC(CC2OC2C(C)C(C)O)C(O)C1O (centres unmarked) [Example 7, 3,5-dinitro-2-methylbenzyl monate A] | 0.1 (≈ 0.186 µM) | ≤ 0.1 | 0.25 (≈ 0.464 µM) | 0.25 (≈ 0.464 µM) | 0.25 (≈ 0.464 µM) | 0.25 (≈ 0.464 µM) | > 80 | 0.1 (≈ 0.186 µM) | > 100 | 1 (≈ 1.86 µM) | 1 (≈ 1.86 µM) | > 100 | > 100 | 1 (≈ 1.86 µM) | > 100 | > 100 | 2.5 (≈ 4.64 µM) | 0.25 (≈ 0.464 µM) | > 100 | 0.5 (≈ 0.928 µM) | MIC (M. pneumoniae ATCC 15492): 2.5 µg/mL (≈ 4.64 µM); MIC [8]: 0.25 µg/mL (≈ 0.464 µM); MIC (E. coli ESS): 2.5 µg/mL (≈ 4.64 µM); MIC (Staph. aureus Oxford): 1 µg/mL (≈ 1.86 µM); MIC [9]: 5 µg/mL (≈ 9.28 µM); MIC (Strep. faecalis 1): > 100 µg/mL; MIC [10]: 0.1 µg/mL (≈ 0.186 µM); MIC (M. suipneumoniae JF 435): 0.25 µg/mL (≈ 0.464 µM)
2 | C/C(=C\C(=O)OCc1ccc([N+](=O)[O-])c([N+](=O)[O-])c1)CC1OCC(CC2OC2C(C)C(C)O)C(O)C1O (centres unmarked) [Example 9, 3,4-dinitrobenzyl monate A] | 0.25 (≈ 0.477 µM) | ≤ 0.01 | 0.5 (≈ 0.953 µM) | 0.25 (≈ 0.477 µM) | 0.5 (≈ 0.953 µM) | 0.5 (≈ 0.953 µM) | 80 (≈ 153 µM) | 0.25 (≈ 0.477 µM) | 50 (≈ 95.3 µM) | 2.5 (≈ 4.77 µM) | 0.5 (≈ 0.953 µM) | 50 (≈ 95.3 µM) | > 100 | 0.25 (≈ 0.477 µM) | > 100 | 100 (≈ 191 µM) | 1 (≈ 1.91 µM) | 0.05 (≈ 0.0953 µM) | > 100 | 2.5 (≈ 4.77 µM) | MIC [8]: 0.25 µg/mL (≈ 0.477 µM); MIC (E. coli ESS): 1 µg/mL (≈ 1.91 µM); MIC (Staph. aureus Oxford): 1 µg/mL (≈ 1.91 µM); MIC [9]: 2.5 µg/mL (≈ 4.77 µM); MIC (Strep. faecalis 1): 25 µg/mL (≈ 47.7 µM); MIC [10]: 0.5 µg/mL (≈ 0.953 µM); MIC (M. suipneumoniae JF 435): 1 µg/mL (≈ 1.91 µM)
3 | C/C(=C\C(=O)OCc1ccc([N+](=O)[O-])cc1[N+](=O)[O-])CC1OCC(CC2OC2C(C)C(C)O)C(O)C1O (centres unmarked) [Example 10, 2,4-dinitrobenzyl monate A] | 0.5 (≈ 0.953 µM) | ≤ 0.01 | 1 (≈ 1.91 µM) | 0.5 (≈ 0.953 µM) | 1 (≈ 1.91 µM) | 1 (≈ 1.91 µM) | > 80 | 0.5 (≈ 0.953 µM) | > 100 | 2.5 (≈ 4.77 µM) | 0.25 (≈ 0.477 µM) | > 100 | > 100 | 0.5 (≈ 0.953 µM) | > 100 | > 100 | 2.5 (≈ 4.77 µM) | 0.05 (≈ 0.0953 µM) | > 100 | 2.5 (≈ 4.77 µM) | MIC (M. pneumoniae ATCC 15492): 2.5 µg/mL (≈ 4.77 µM); MIC [8]: 0.25 µg/mL (≈ 0.477 µM); MIC (E. coli ESS): 2.5 µg/mL (≈ 4.77 µM); MIC (Staph. aureus Oxford): 1 µg/mL (≈ 1.91 µM); MIC [9]: 2.5 µg/mL (≈ 4.77 µM); MIC (Strep. faecalis 1): > 100 µg/mL; MIC [10]: 0.25 µg/mL (≈ 0.477 µM); MIC (M. suipneumoniae JF 435): 1 µg/mL (≈ 1.91 µM)
